Like-named read-outs stand apart in the source and are kept apart here.
What was measured:
Assay type in all cases: cell-based, human
[1] = test system: HTT mRNA; assay: RT-qPCR splicing assay, HTT canonical (CJ) and alternative (AJ) junction mRNA; conditions: Homo sapiens; for AC50: read-out: HTT AJ (AC50, increase in AJ mRNA)
Summary of the method: (§1)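 24 h compound exposure of A673 or K562 cells at 37 °C, 10 uM top final concentration, 3-fold steps, DMSO ≤0.25%. Splice-isoform levels determined by qPCR on cDNA from lysates, run at least in duplicate; values expressed as RQ normalized to GAPDH, GUSB or PPIA and DMSO.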

[2] = test system: MYB mRNA; assay: RT-qPCR splicing assay, MYB canonical (CJ) and alternative (AJ) junction mRNA; conditions: Homo sapiens; for AC50: read-out: MYB AJ (AC50, increase in AJ mRNA)
Summary of the method: as §1

[3] = test system: SMN2 mRNA; assay: RT-qPCR splicing assay panel, SMN2 canonical junction (CJ) mRNA; conditions: Homo sapiens, canonical junction (CJ) mRNA, RT-qPCR panel, Table 4A; read-out: SMN2, decrease in CJ mRNA levels, IC50
Summary of the method: as §1

[4] = test system: Target C mRNA; assay: RT-qPCR splicing assay panel, Target C canonical junction (CJ) mRNA; conditions: Homo sapiens, canonical junction (CJ) mRNA, RT-qPCR panel, Table 4A; read-out: Target C, decrease in CJ mRNA levels, IC50
Summary of the method: as §1

[5] = 24 h, Table 3A, A673 or K562 cells, 24 h treatment
[6] = 24 h, Table 3A, A673 or K562 cells, 24 h treatment, read-out: HTT CJ (IC50, decrease in CJ mRNA)
[7] = canonical junction (CJ) mRNA, RT-qPCR panel, Table 4A, read-out: HTT, decrease in CJ mRNA levels, IC50
[8] = 24 h, Table 3A, A673 or K562 cells, 24 h treatment, read-out: MYB CJ (IC50, decrease in CJ mRNA)
[9] = canonical junction (CJ) mRNA, RT-qPCR panel, Table 4A, read-out: MYB, decrease in CJ mRNA levels, IC50

Row | SMILES | AC50 [1, 5] [µM] | IC50 [1, 6] [µM] | IC50 [1, 7] [µM] | AC50 [2, 5] [µM] | IC50 [2, 8] [µM] | IC50 [2, 9] [µM] | IC50 [3] [µM] | IC50 [4] [µM]
1 | COc1cc(-c2cc(O)c(-c3ccc(N4CC[C@@H](NC(C)(C)C)C4)nn3)cc2F)cnn1 [Compound 212, 2-{6-[(3R)-3-(tert-butylamino)pyrrolidin-1-yl]pyridazin-3-yl}-4-fluoro-5-(6-methoxypyridazin-4-yl)phenol] | < 0.1 | < 0.1 | < 0.1 | < 0.1 | < 0.1 | < 0.1 | < 0.1 | < 0.1
2 | COc1cc(-c2cc(O)c(-c3ccc(N4CC[C@@H](NC5CC5)C4)nn3)cc2F)cnn1 [Compound 213, 2-{6-[(3R)-3-(cyclopropylamino)pyrrolidin-1-yl]pyridazin-3-yl}-4-fluoro-5-(6-methoxypyridazin-4-yl)phenol] | 0.1 to 1 | 0.1 to 1 | 0.1 to 1 | 1 to 10 | 0.1 to 1 | 0.1 to 1 | < 0.1 | 1 to 10
3 | COc1cc(-c2cc(O)c(-c3ccc(N4CC[C@H](NC5CC5)C4)nn3)cc2F)cnn1 [Compound 214, 2-{6-[(3S)-3-(cyclopropylamino)pyrrolidin-1-yl]pyridazin-3-yl}-4-fluoro-5-(6-methoxypyridazin-4-yl)phenol] | < 0.1 | < 0.1 | < 0.1 | 0.1 to 1 | 0.1 to 1 | 0.1 to 1 | < 0.1 | 0.1 to 1
4 | COc1cc(-c2ccc(-c3ccc(N4CC[C@H](NC5CC5)C4)nn3)c(O)c2)cnn1 [Compound 215, 2-{6-[(3S)-3-(cyclopropylamino)pyrrolidin-1-yl]pyridazin-3-yl}-5-(6-methoxypyridazin-4-yl)phenol] | < 0.1 | < 0.1 | < 0.1 | 0.1 to 1 | 0.1 to 1 | 0.1 to 1 | < 0.1 | 0.1 to 1
5 | COc1cc(-c2ccc(-c3ccc(N4CC[C@@H](NC5CC5)C4)nn3)c(O)c2)cnn1 [Compound 216, 2-{6-[(3R)-3-(cyclopropylamino)pyrrolidin-1-yl]pyridazin-3-yl}-5-(6-methoxypyridazin-4-yl)phenol] | 0.1 to 1 | < 0.1 | < 0.1 | 0.1 to 1 | 0.1 to 1 | 0.1 to 1 | < 0.1 | 0.1 to 1
6 | COc1cc(-c2ccc(-c3ccc(N4C[C@@H](F)[C@@H](NC(C)(C)C)C4)nn3)c(O)c2)cnn1 [Compound 218, 2-{6-[(3S,4R)-3-(tert-butylamino)-4-fluoropyrrolidin-1-yl]pyridazin-3-yl}-5-(6-methoxypyridazin-4-yl)phenol] | < 0.1 | < 0.1 | < 0.1 | < 0.1 | < 0.1 | < 0.1 | < 0.1 | < 0.1
7 | COc1cc(-c2ccc(-c3ccc(N4CCC(NC(C)(C)C)C4=O)nn3)c(O)c2)cnn1 (stereo not shown) [Compound 219, 3-(tert-butylamino)-1-{6-[2-hydroxy-4-(6-methoxypyridazin-4-yl)phenyl]pyridazin-3-yl}pyrrolidin-2-one] | 1 to 10 | 1 to 10 | 1 to 10 | 1 to 10 | 1 to 10 | 1 to 10 | 1 to 10 | 1 to 10
8 | O=c1cc(-c2cc(O)c(-c3ccc(N4CC[C@@H](NC5CCC5)C4)nn3)cc2F)cc[nH]1 [Compound 220, 4-(4-{6-[(3R)-3-(cyclobutylamino)pyrrolidin-1-yl]pyridazin-3-yl}-2-fluoro-5-hydroxyphenyl)-1H-pyridin-2-one] | 0.1 to 1 | 0.1 to 1 | 0.1 to 1 | 0.1 to 1 | 0.1 to 1 | 0.1 to 1 | 0.1 to 1 | 0.1 to 1

Reference: patent US20250333397A1 (REMIX THERAPEUTICS INC., priority 2021, published 2025)
